From publication PMC6704710, “Preclinical evaluation of 3D185, a novel potent inhibitor of FGFR1/2/3 and CSF-1R, in FGFR-dependent and macrophage-dominant cancer models” (Journal of Experimental & Clinical Cancer Research : CR, 2019)

Key:
Assay in all cases: Eurofins kinase panel
Type in all cases: biochemical
Conditions in all cases: read-out: Inhibition rate (%)
ACTR2(h) = biological target: T1, ACTR2(h) (Homo sapiens, UniProt P27037)
T1 construct: purchased Eurofins (KinaseProfiler)

B-Raf(h) = biological target: T2, B-Raf(h) (Homo sapiens, UniProt P15056)
T2 construct: purchased Eurofins (KinaseProfiler)

CDK6/cyclinD3(h) = biological target: T3, CDK6/cyclinD3(h) (Homo sapiens, UniProt Q00534)
T3 construct: purchased Eurofins (KinaseProfiler)

CaMKIIγ(h) = biological target: T4, CaMKIIγ(h) (Homo sapiens, UniProt Q13555)
T4 construct: purchased Eurofins (KinaseProfiler)

Haspin(h) = biological target: T5, Haspin(h) (Homo sapiens, UniProt Q8TF76)
T5 construct: purchased Eurofins (KinaseProfiler)
T5 sequence (Q8TF76 1-798): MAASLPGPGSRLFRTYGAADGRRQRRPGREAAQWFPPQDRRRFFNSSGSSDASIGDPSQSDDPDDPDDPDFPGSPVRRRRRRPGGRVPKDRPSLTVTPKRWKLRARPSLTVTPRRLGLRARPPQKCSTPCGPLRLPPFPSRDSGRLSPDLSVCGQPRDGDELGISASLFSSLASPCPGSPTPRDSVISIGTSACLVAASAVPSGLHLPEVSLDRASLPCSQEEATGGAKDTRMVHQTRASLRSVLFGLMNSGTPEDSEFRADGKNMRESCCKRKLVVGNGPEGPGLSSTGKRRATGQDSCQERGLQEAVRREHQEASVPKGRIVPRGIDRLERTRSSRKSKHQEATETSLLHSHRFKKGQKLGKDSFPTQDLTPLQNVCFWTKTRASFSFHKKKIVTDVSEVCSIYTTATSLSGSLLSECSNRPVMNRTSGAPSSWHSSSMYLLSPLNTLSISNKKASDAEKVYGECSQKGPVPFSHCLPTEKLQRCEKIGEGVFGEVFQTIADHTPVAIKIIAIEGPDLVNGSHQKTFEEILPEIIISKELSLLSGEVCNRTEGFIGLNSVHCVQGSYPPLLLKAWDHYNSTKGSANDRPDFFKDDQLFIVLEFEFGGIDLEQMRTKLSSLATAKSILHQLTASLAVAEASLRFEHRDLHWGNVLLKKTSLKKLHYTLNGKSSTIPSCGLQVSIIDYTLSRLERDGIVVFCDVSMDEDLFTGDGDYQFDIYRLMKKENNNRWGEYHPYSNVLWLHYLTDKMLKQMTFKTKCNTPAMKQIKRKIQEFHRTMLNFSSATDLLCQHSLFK

LKB1(h) = biological target: T6, LKB1(h) (Homo sapiens, UniProt Q15831)
T6 construct: purchased Eurofins (KinaseProfiler)
T6 sequence (Q15831 1-433): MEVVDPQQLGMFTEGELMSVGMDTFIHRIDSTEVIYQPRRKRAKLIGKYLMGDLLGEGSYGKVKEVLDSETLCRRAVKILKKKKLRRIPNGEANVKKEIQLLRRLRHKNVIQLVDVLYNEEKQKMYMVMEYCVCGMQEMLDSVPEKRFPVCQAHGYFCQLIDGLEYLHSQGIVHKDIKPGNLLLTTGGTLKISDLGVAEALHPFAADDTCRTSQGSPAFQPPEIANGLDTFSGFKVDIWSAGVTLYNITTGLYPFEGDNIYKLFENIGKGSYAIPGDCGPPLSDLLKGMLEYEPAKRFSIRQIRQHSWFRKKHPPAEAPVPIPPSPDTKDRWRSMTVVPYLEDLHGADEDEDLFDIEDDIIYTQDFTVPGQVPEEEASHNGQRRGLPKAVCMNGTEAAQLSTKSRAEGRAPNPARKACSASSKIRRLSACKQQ
T6 sequence (Q7RTN6 1-431 partner): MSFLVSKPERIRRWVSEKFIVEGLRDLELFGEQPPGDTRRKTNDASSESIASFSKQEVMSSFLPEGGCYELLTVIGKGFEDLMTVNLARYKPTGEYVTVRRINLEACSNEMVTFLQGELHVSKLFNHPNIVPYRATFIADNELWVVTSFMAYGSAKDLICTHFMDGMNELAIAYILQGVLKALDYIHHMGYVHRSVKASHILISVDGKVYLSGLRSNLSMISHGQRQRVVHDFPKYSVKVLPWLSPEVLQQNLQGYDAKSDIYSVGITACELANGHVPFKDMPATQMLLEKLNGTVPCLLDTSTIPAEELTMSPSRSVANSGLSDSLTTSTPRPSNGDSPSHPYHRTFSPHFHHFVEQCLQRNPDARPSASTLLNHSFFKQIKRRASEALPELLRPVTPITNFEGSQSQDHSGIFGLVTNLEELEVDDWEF
T6 sequence (Q9Y376 1-341 partner): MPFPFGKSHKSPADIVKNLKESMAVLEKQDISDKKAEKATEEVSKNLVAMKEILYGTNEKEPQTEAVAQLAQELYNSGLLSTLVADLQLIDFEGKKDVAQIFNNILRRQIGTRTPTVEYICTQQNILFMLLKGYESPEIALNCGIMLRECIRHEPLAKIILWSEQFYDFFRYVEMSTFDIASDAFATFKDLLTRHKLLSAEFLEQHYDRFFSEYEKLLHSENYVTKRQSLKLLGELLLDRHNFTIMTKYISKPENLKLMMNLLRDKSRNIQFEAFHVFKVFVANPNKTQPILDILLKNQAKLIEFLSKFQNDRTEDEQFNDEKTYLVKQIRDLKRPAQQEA

PDGFRα(V561D)(h) = biological target: T7, PDGFRα(V561D)(h) (Homo sapiens, UniProt P16234, V561D)
T7 construct: purchased Eurofins (KinaseProfiler)

PI3 Kinase (p120γ)(h) = biological target: T8, PI3 Kinase (p120γ)(h) (Homo sapiens, UniProt P48736)
T8 construct: purchased Eurofins (KinaseProfiler)

SIK2(h) = biological target: T9, SIK2(h) (Homo sapiens, UniProt Q9H0K1)
T9 construct: purchased Eurofins (KinaseProfiler)
T9 sequence (Q9H0K1 whole entry): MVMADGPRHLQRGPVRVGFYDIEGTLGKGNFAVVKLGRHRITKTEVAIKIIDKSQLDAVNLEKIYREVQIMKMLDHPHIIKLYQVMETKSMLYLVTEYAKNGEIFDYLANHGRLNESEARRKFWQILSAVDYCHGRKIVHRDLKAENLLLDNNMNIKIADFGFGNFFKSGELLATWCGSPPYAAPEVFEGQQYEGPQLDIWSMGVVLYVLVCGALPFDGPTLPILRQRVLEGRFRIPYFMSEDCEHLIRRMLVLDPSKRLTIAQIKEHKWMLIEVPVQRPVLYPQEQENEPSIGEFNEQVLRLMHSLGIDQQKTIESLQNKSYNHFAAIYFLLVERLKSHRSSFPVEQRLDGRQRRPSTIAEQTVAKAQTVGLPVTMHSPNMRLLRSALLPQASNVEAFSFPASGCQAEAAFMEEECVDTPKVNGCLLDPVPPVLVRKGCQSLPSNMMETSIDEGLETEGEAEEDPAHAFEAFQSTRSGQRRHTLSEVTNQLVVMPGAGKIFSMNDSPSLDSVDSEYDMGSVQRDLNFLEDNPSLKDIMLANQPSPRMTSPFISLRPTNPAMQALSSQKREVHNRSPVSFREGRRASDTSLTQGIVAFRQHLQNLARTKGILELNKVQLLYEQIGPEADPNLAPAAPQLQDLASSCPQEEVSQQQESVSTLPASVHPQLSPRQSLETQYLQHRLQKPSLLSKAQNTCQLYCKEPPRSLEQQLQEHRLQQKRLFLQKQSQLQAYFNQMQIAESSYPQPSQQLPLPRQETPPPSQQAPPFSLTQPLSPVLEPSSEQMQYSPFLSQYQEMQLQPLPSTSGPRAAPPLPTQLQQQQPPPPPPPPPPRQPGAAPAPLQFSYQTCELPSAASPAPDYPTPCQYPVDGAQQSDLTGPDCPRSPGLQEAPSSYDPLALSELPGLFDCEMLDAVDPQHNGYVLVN

T2 sequence (P15056 whole entry): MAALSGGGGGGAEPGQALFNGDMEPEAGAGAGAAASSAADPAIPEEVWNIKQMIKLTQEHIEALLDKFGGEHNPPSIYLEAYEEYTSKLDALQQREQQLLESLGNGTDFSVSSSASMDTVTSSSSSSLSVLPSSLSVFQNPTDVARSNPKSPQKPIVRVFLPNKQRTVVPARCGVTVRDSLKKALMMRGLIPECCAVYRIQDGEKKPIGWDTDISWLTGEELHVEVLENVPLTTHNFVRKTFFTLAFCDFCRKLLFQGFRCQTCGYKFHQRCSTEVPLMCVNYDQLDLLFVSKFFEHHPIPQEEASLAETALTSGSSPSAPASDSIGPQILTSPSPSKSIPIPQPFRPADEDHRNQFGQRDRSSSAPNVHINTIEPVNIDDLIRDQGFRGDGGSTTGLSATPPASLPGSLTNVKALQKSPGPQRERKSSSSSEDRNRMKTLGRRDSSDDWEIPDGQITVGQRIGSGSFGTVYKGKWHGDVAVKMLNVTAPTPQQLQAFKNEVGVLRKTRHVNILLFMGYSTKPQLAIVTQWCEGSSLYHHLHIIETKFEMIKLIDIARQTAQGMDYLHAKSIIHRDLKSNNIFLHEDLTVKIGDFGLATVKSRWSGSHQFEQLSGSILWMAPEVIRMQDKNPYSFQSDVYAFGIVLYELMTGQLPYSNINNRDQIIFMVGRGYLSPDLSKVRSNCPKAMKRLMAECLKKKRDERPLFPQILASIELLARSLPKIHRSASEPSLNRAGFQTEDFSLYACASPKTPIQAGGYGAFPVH
T7 sequence (P16234 24-1089 V561D): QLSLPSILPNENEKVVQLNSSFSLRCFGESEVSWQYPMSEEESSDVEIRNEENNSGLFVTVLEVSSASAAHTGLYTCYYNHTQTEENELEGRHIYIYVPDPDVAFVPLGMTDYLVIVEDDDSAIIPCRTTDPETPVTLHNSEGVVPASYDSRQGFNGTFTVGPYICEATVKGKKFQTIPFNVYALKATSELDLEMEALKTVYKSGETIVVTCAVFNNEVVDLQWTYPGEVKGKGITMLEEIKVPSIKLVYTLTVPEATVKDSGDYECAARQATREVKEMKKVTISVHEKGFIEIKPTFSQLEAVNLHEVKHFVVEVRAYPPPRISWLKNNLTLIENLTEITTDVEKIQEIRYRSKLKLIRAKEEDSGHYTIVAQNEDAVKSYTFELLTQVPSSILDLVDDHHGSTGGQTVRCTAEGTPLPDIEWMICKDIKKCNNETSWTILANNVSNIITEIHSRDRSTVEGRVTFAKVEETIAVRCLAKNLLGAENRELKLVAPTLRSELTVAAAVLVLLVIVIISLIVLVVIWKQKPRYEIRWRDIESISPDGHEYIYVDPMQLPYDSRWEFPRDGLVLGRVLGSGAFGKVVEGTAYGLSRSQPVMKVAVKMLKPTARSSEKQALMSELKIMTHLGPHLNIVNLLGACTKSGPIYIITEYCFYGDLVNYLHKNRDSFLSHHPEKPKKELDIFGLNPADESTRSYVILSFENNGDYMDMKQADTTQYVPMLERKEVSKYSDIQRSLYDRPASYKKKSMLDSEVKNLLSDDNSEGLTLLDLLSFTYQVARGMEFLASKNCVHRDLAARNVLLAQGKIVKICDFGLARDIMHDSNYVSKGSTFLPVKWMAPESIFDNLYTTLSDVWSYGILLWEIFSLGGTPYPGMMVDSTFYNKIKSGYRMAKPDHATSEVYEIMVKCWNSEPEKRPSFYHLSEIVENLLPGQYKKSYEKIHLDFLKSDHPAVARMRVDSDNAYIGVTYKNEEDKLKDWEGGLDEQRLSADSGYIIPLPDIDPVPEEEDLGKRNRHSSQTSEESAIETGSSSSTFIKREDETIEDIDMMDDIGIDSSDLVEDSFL
T8 sequence (P48736 whole entry): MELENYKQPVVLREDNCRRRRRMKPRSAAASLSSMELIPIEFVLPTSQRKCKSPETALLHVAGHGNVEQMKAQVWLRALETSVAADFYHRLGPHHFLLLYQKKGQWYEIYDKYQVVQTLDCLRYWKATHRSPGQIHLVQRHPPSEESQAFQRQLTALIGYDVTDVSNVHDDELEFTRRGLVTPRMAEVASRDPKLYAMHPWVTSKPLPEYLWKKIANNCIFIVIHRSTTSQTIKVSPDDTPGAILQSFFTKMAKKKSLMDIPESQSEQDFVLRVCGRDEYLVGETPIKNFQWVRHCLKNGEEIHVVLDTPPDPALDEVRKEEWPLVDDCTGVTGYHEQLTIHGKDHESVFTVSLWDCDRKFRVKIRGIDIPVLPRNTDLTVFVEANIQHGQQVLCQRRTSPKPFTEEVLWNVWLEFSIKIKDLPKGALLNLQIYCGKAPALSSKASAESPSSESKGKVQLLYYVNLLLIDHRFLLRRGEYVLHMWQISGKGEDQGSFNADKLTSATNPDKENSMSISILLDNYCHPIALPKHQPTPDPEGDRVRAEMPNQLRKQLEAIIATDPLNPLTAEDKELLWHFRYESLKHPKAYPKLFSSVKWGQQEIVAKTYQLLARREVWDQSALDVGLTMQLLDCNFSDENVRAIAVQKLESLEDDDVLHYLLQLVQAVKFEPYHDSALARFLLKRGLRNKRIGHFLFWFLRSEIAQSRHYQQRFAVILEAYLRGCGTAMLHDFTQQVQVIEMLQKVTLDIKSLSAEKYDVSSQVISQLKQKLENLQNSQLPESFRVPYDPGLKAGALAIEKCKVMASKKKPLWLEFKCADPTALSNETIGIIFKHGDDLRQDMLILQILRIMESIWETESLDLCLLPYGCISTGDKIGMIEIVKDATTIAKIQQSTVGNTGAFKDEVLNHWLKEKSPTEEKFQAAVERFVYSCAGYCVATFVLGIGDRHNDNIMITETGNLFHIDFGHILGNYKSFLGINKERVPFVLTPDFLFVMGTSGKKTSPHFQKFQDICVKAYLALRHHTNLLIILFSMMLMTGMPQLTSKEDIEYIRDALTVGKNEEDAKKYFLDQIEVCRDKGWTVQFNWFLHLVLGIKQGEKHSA
T4 sequence (Q13555 whole entry): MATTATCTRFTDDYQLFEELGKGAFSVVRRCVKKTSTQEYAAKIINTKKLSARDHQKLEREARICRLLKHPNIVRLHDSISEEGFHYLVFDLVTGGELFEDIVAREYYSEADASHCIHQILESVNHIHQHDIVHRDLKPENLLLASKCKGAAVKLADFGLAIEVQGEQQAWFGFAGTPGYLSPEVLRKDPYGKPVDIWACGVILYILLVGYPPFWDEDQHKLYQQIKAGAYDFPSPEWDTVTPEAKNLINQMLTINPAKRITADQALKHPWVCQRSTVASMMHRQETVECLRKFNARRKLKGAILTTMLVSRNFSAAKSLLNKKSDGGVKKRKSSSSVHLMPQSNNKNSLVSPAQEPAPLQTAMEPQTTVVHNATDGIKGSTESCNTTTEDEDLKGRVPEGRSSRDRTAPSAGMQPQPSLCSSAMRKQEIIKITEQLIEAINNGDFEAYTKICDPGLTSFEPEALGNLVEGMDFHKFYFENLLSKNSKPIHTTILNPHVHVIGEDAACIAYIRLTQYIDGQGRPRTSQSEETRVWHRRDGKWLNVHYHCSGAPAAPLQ
T3 sequence (Q00534 whole entry): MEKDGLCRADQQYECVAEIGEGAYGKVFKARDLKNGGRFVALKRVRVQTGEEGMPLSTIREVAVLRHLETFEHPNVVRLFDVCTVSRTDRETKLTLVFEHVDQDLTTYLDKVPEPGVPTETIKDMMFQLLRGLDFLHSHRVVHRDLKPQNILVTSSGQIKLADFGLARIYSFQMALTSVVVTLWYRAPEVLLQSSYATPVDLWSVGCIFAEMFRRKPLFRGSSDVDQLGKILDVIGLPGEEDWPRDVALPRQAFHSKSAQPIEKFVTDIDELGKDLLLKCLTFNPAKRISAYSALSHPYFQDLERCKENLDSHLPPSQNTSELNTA
T3 sequence (P30281 whole entry partner): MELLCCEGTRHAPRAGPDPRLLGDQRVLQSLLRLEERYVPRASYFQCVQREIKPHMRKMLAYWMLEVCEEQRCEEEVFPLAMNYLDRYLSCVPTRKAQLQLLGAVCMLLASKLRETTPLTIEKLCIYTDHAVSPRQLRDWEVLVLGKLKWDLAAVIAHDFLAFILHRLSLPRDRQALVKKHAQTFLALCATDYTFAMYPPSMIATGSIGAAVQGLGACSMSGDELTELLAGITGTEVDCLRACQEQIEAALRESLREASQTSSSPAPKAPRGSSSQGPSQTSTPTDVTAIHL

## COc1cc(OC)c(Cl)c(-c2ccc3c(NC(=O)c4ccc(N5CCNC(C)(C)C5)cc4)n[nH]c3n2)c1Cl [3D185]
ACTR2(h); 10 nM
  inhibition at 0.01 µM: 0%
ACTR2(h); 100 nM
  inhibition at 0.1 µM: -1%
ACTR2(h); 1000 nM
  inhibition at 1 µM: 1%
B-Raf(h); 10 nM
  inhibition at 0.01 µM: -4%
B-Raf(h); 100 nM
  inhibition at 0.1 µM: -5%
B-Raf(h); 1000 nM
  inhibition at 1 µM: 5%
CDK6/cyclinD3(h); 10 nM
  inhibition at 0.01 µM: 9%
CDK6/cyclinD3(h); 100 nM
  inhibition at 0.1 µM: 15%
CDK6/cyclinD3(h); 1000 nM
  inhibition at 1 µM: 16%
CaMKIIγ(h); 10 nM
  inhibition at 0.01 µM: -2%
CaMKIIγ(h); 100 nM
  inhibition at 0.1 µM: -6%
CaMKIIγ(h); 1000 nM
  inhibition at 1 µM: -9%
Haspin(h); 10 nM
  inhibition at 0.01 µM: -15%
Haspin(h); 100 nM
  inhibition at 0.1 µM: -6%
Haspin(h); 1000 nM
  inhibition at 1 µM: 4%
LKB1(h); 10 nM
  inhibition at 0.01 µM: -9%
LKB1(h); 100 nM
  inhibition at 0.1 µM: 7%
LKB1(h); 1000 nM
  inhibition at 1 µM: 2%
PDGFRα(V561D)(h); 10 nM
  inhibition at 0.01 µM: 5%
PDGFRα(V561D)(h); 100 nM
  inhibition at 0.1 µM: 23%
PDGFRα(V561D)(h); 1000 nM
  inhibition at 1 µM: 57%
PI3 Kinase (p120γ)(h); 10 nM
  inhibition at 0.01 µM: 0%
PI3 Kinase (p120γ)(h); 100 nM
  inhibition at 0.1 µM: 1%
PI3 Kinase (p120γ)(h); 1000 nM
  inhibition at 1 µM: 3%
SIK2(h); 10 nM
  inhibition at 0.01 µM: 7%
SIK2(h); 100 nM
  inhibition at 0.1 µM: 5%
SIK2(h); 1000 nM
  inhibition at 1 µM: 4%
